Experimental data: US20180078525A1, “COMPOSITION FOR GROWTH PROMOTION, CONTAINING COUMARIC ACID AS ACTIVE INGREDIENT” (KOREA MEDICINE RESEARCH INSTITUTE, INC, priority 2014, published 2018)

Columns and labels:
Sprague-Dawley rats [1] = experiment: Analysis of growth plate (heights of proliferative and hypertrophic zones); assay type: in vivo, rat; details: after 10-day administration; for height of the proliferative zone of the growth plate: average, control group 0.77 mm; for height of the hypertrophic zone of the growth plate: control group 1.10 mm
Experimental: In a control group, saline was injected. […] To assess the growth effect of coumaric acid, the growth plate of each rat was analyzed. In Experimental Example <1-1>, after the 10-day administration was completed, right and left tibias (shinbones) were extracted from the experimental group and the control groups according to this invention, all the muscles, fat and ligaments attached to bone tissue were removed, and then the resulting specimen was stored in 70% alcohol, demineralized, and then dehydrated. Afterward, the resulting specimen was washed with xylene, and then put into a paraffin block. Subsequently, the specimen was cut to a thickness of 4 μm, and then the heights of the proliferative zone and the hypertrophic zone in the growth plate were measured using a BX50 microscope (Olympus).

cartilage cells = experiment: Proliferation of cartilage cells in proximal tibia (BrdU staining); assay type: in vivo, rat; details: rats, after 10-day administration, BrdU 30 mg/kg i.p., 2 hours before autopsy; control group 0.13%
Experimental: (§1) In a control group, saline was injected. […] The drug administered to each group is as follows:
To confirm whether the effect of coumaric acid on bone growth is caused by the proliferation of cartilage cells, cartilage cells were observed. In Experimental Example <1-1>, after the 10-day administration was completed, rats of the experimental group and the control groups according to this invention were intraperitoneally administered with a dose of 30 mg/kg of 5-bromo-2′-deoxyuridine (BrdU) on the day of the experiment. Two hours later, autopsies were carried out to extract legs, and then the legs were stored in 4% PFA for 24 hours. Following embedding and sectioning, cartilage cells which were stained using a BrdU staining kit (Invitrogen, Carlsbad, Calif., USA) were observed.

growth hormone = experiment: Growth hormone levels in blood (Growth Hormone Rat ELISA Kit); assay type: in vivo; details: rat serum, after 10-day administration; control group 3.97 ng/ml
Experimental: as §1
To confirm whether coumaric acid affects the secretion level of the growth hormone, a growth hormone level in the blood of each rat was measured. […] The measurement of the growth hormone levels were carried out using a Growth Hormone Rat ELISA Kit (Life Technologies, KRC5311).

IGF-1 = IGF-1 protein levels in blood (IGF1 ELISA Kit); assay type: in vivo; details: rat serum, after 10-day administration; control group 0.84 mg/kg
Experimental: as §1
To confirm whether coumaric acid affects the secretion levels of IGF-1, […], IGF-1 protein levels were measured. In Experimental Example <1-1>, after the 10-day administration was completed, the rats of the experimental group and the control groups according to this invention were anesthetized on the day of the experiment, and then blood was extracted therefrom using a syringe and centrifuged to obtain serum. The measurement of the IGF-1 levels was carried out using an IGF1 ELISA Kit (Abcam, ab100695).

[2] = Changes in the body weight of laboratory animals; details: male Sprague-Dawley rats, 10-day administration; coumaric acid 100 mg/kg oral, growth hormone 20 μg/kg s.c., once daily
Experimental: Three-week-old male Sprague-Dawley rats were purchased and acclimated for three days. A breeding environment was altered to a 24-hour pattern, a light/dark cycle was maintained at 12-hour intervals, and antibiotic-free normal solid feed was used. In a control group, saline was injected. In a positive control group, Eutropin Injection (LG Bioscience Korea) was subcutaneously injected at a dose of 20 μg/kg once a day. The coumaric acid of this invention was administered to the oral cavity of all rats of a coumaric acid group, once daily.
After feeding and administering the coumaric acid to the rats for 10 days, autopsies were carried out to confirm the following content.
The measurement was carried out twice a week. The measured values were statistically analyzed to calculate mean±standard deviation.

Sprague-Dawley rats [3] = experiment: Total tibial length by X-ray radiography; assay type: in vivo, rat; details: after 10-day administration, coumaric acid 100 mg/kg oral, growth hormone 20 μg/kg s.c.
Experimental: as §1
To assess the effect of coumaric acid on growth promotion, total tibial length of rats were measured. In Experimental Example <1-1>, after the 10-day administration was completed, right and left tibias (shinbones) were extracted from the control groups and the coumaric acid-fed experimental group according to this invention, all the muscles, fat and ligaments attached to bone tissue were removed, and then the resulting specimen was stored in 70% alcohol, followed by radiographic analysis using an X-ray imaging instrument (OM-FORTE-10121, DK Medical Systems). For the analysis, 55 kV, […] X-ray sources were used. The total tibial length was measured by X-ray radiography.

Row | Compound | height of the proliferative zone of the growth plate (Sprague-Dawley rats [1]) | height of the hypertrophic zone of the growth plate (Sprague-Dawley rats [1]) | ratio of BrdU-labeled cells with respect to total cells (cartilage cells) | growth hormone level in blood (growth hormone) | IGF-1 protein level (IGF-1) | body weight vs control group [2] | total tibial length vs control group (Sprague-Dawley rats [3])
1 | O=C(O)/C=C/c1ccc(O)cc1 [coumaric acid] | 0.98 mm | 1.27 mm | 0.18% | 7.62 ng/mL | 1.23 mg/kg | almost no difference | –
2 | growth hormone: positive control: Eutropin Injection (LG Bioscience Korea), growth hormone, subcutaneously injected at 20 μg/kg once a day | 1.13 mm | 1.44 mm | 0.18% | 11.89 ng/mL | 1.31 mg/kg | – | greater than the control group
